Assays:
Assay type in all cases: in vivo
[1] = test system: barnyardgrass (Echinochloa crus-galli); assay: Test C flooded paddy test; settings: Flood, 0 is no effect, 100 is complete control
Summary of the method: (§1)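 Compound was added directly to paddy water held 3 cm above the soil, with plants at the 2-leaf stage. Injury was scored visually versus untreated controls after 13–15 d greenhouse growth, using a 0–100 scale where 100 means complete control.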

[2] = test system: ducksalad (Heteranthera limosa); assay: Test C flooded paddy test; settings: Flood, 0 is no effect, 100 is complete control
Summary of the method: as §1

rice (Oryza sativa) = assay: Test C flooded paddy test; settings: Flood, 0 is no effect, 100 is complete control
Summary of the method: as §1

[3] = test system: sedge, umbrella (small-flower umbrella sedge, Cyperus difformis); assay: Test C flooded paddy test; settings: Flood, 0 is no effect, 100 is complete control
Summary of the method: as §1

[4] = test system: blackgrass (Alopecurus myosuroides); assay: Test D preemergence; settings: scale 0 to 100
Summary of the method: (§2)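 Percent control (0–100) estimated by eye relative to untreated plants roughly 21 d after preemergence treatment of seeds in silt loam soil.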

[5] = test system: buckwheat, wild (wild buckwheat, Polygonum convolvulus); assay: Test D preemergence; settings: scale 0 to 100
Summary of the method: as §2

[6] = test system: field poppy (Papaver rhoeas); assay: Test D preemergence; settings: scale 0 to 100
Summary of the method: as §2

[7] = test system: barnyardgrass (Echinochloa crus-galli); assay: Test E preemergence; settings: scale 0 to 100
Summary of the method: (§3)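 Seeds sown in silt loam treated preemergence, or plants 2 to 18 cm tall in peat-based potting medium treated postemergence, with test chemical in a non-phytotoxic solvent mixture containing surfactant. Kept in greenhouse 14 to 21 d, then visually rated against controls on a 0–100 scale (0 no effect, 100 complete control).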

[8] = test system: crabgrass, Brazil (Brazilian crabgrass, Digitaria horizontalis); assay: Test E preemergence; settings: scale 0 to 100
Summary of the method: as §3

[9] = test system: goosegrass (Eleusine indica); assay: Test E preemergence; settings: scale 0 to 100
Summary of the method: as §3

[10] = test system: johnsongrass (Sorghum halepense); assay: Test E preemergence; settings: scale 0 to 100
Summary of the method: as §3

[11] = test system: nutsedge, yellow (yellow nutsedge, Cyperus esculentus); assay: Test E preemergence; settings: scale 0 to 100
Summary of the method: as §3

soybean (Glycine max) = assay: Test E preemergence; settings: scale 0 to 100
Summary of the method: as §3

For CN1CC(c2cccc(C(F)(F)F)c2)C(C(=O)Nc2ccccc2S(C)(=O)=O)C1=O (stereo not shown) [Compound 637], the “Plant response rating (scale of 0 to 100), Barnyardgrass” value ([1]; 31 g ai/ha) was 35, the “Plant response rating (scale of 0 to 100), Barnyardgrass” value ([1]; 62 g ai/ha) was 40 and the “Plant response rating (scale of 0 to 100), Barnyardgrass” value ([1]; 125 g ai/ha) was 60. For the same compound, the “Plant response rating (scale of 0 to 100), Barnyardgrass” value ([1]; 250 g ai/ha) was 75, the “Plant response rating (scale of 0 to 100), Ducksalad” value (“Plant response rating … Ducksalad” for short) ([2]; 31 g ai/ha) was 30 and the “Plant response rating … Ducksalad” value ([2]; 62 g ai/ha) was 45. For the same compound, the “Plant response rating … Ducksalad” value ([2]; 125 g ai/ha) was 70, the “Plant response rating … Ducksalad” value ([2]; 250 g ai/ha) was 90 and the “Plant response rating (scale of 0 to 100), Rice” value (“Plant response rating … Rice” below) (rice (Oryza sativa); 31 g ai/ha) was 15. For the same compound, the “Plant response rating … Rice” value (rice (Oryza sativa); 62 g ai/ha) was 15, the “Plant response rating … Rice” value (rice (Oryza sativa); 125 g ai/ha) was 15 and the “Plant response rating … Rice” value (rice (Oryza sativa); 250 g ai/ha) was 45. For the same compound, the “Plant response rating (scale of 0 to 100), Sedge, Umbrella” value (from here on “Plant response rating … Umbrella”) ([3]; 31 g ai/ha) was 0, the “Plant response rating … Umbrella” value ([3]; 62 g ai/ha) was 0 and the “Plant response rating … Umbrella” value ([3]; 125 g ai/ha) was 0. For the same compound, the “Plant response rating … Umbrella” value ([3]; 250 g ai/ha) was 0, the “Plant response rating: Blackgrass” value ([4]; 31 g ai/ha) was 10 and the “Plant response rating: Blackgrass” value ([4]; 62 g ai/ha) was 10. For the same compound, the “Plant response rating: Blackgrass” value ([4]; 125 g ai/ha) was 45, the “Plant response rating: Blackgrass” value ([4]; 250 g ai/ha) was 50 and the “Plant response rating: Buckwheat, Wild” value ([5]; 31 g ai/ha) was 0. For the same compound, the “Plant response rating: Buckwheat, Wild” value ([5]; 62 g ai/ha) was 10, the “Plant response rating: Buckwheat, Wild” value ([5]; 125 g ai/ha) was 15 and the “Plant response rating: Buckwheat, Wild” value ([5]; 250 g ai/ha) was 80. The “Plant response rating: Field Poppy” value ([6]; 31 g ai/ha) was 100, the “Plant response rating: Field Poppy” value ([6]; 62 g ai/ha) was 100 and the “Plant response rating: Field Poppy” value ([6]; 125 g ai/ha) was 100. For the same compound, the “Plant response rating: Field Poppy” value ([6]; 250 g ai/ha) was 100, the “Plant response rating: Barnyardgrass” value ([7]; 31 g ai/ha) was 85 and the “Plant response rating: Barnyardgrass” value ([7]; 62 g ai/ha) was 70. The “Plant response rating: Barnyardgrass” value ([7]; 125 g ai/ha) was 80, the “Plant response rating: Barnyardgrass” value ([7]; 250 g ai/ha) was 95 and the “Plant response rating: Crabgrass, Brazil” value ([8]; 31 g ai/ha) was 75. For the same compound, the “Plant response rating: Crabgrass, Brazil” value ([8]; 62 g ai/ha) was 85, the “Plant response rating: Crabgrass, Brazil” value ([8]; 125 g ai/ha) was 98 and the “Plant response rating: Crabgrass, Brazil” value ([8]; 250 g ai/ha) was 95. For the same compound, the “Plant response rating: Goosegrass” value ([9]; 31 g ai/ha) was 0, the “Plant response rating: Goosegrass” value ([9]; 62 g ai/ha) was 0 and the “Plant response rating: Goosegrass” value ([9]; 125 g ai/ha) was 65. For the same compound, the “Plant response rating: Goosegrass” value ([9]; 250 g ai/ha) was 90, the “Plant response rating: Johnsongrass” value ([10]; 31 g ai/ha) was 0 and the “Plant response rating: Johnsongrass” value ([10]; 62 g ai/ha) was 0. The “Plant response rating: Johnsongrass” value ([10]; 125 g ai/ha) was 25, the “Plant response rating: Johnsongrass” value ([10]; 250 g ai/ha) was 60 and the “Plant response rating: Nutsedge, Yellow” value ([11]; 31 g ai/ha) was 0. The “Plant response rating: Nutsedge, Yellow” value ([11]; 62 g ai/ha) was 0, the “Plant response rating: Nutsedge, Yellow” value ([11]; 125 g ai/ha) was 0 and the “Plant response rating: Nutsedge, Yellow” value ([11]; 250 g ai/ha) was 35. The “Plant response rating: Soybean” value (soybean (Glycine max); 31 g ai/ha) was 0, the “Plant response rating: Soybean” value (soybean (Glycine max); 62 g ai/ha) was 10 and the “Plant response rating: Soybean” value (soybean (Glycine max); 125 g ai/ha) was 25. The “Plant response rating: Soybean” value (soybean (Glycine max); 250 g ai/ha) was 35.
